Legend:
Src = test: CRF-induced Src phosphorylation at Tyr416 in COS-7 cells expressing HA-CRF1R; type: cell-based; conditions: 100 nM wortmannin, 30 min pretreatment; 100 nM CRF, 5 min
Experimental: (§1) COS-7 cells (from the American Type Culture Collection) were cultured at 37°C in a humidified atmosphere of 95% air, 5% CO2, in DMEM supplemented with 10% FBS, 100 μg/ml streptomycin, and 100 units/ml penicillin (COS-7 growth medium). Transient transfections were performed using LipofectAMINE (Life Technologies: Gaithersburg, MD) as described previously ([27]). Cells were seeded at 8 × 10^5 cells/10-cm dish in COS-7 medium and cultured for 3 days before transfection. COS-7 cells were transfected in 5 ml/dish OptiMEM containing 10 μg/ml LipofectAMINE with empty vector, pcDNA3 encoding the HA-CRF1R or the HA-CRF1R-Δ386 mutant. […] After replacing the transfection medium with fresh growth medium, transfected COS-7 cells were cultured for 1 day. […]
(§2) The protocols for measuring total and phosphorylated ERK1/2, c-Src, PYK2, Akt, and EGFR have been previously published ([28], [29]). […] The labeled bands were quantified using the Quantity One 4.6.3 software program (Bio-Rad).
Figure 5 Role of Src tyrosine kinase in CRF-stimulated ERK1/2 phosphorylation. […] Total cell lysates were separated by SDS-PAGE and analyzed by immunoblotting with anti-p-Src Tyr^416 (A,B) or anti-p-ERK1/2 Thr^202/Tyr^204 (C–E), as described in Materials and Methods. Src, PYK2, and ERK1/2 phosphorylation were quantitated by densitometry, and mean values were plotted from three to five independent experiments. […]

[1] = tested on: EGF-stimulated ERK1/2 phosphorylation; test: Modulation of EGF-stimulated ERK1/2 phosphorylation in COS-7 cells; type: cell-based; conditions: wortmannin 100 nM, 30 min pretreatment; 10 ng/ml EGF, 10 min
Experimental: as §1, §2
Figure 3 Involvement of EGFR transactivation in CRF-stimulated ERK1/2 phosphorylation. […] Total cell lysates were separated by SDS-PAGE and analyzed by immunoblotting with anti-p-ERK1/2 Thr^202/Tyr^204 (A–D) or anti-p-EGFR Tyr^1068 (E), as described in Materials and Methods. ERK1/2 and EGFR phosphorylation were quantitated by densitometry, and mean values were plotted from three to five independent experiments. […]

COC[C@H]1OC(=O)c2coc3c2[C@@]1(C)C1=C(C3=O)[C@@H]2CCC(=O)[C@@]2(C)C[C@H]1OC(C)=O [wortmannin]
effect on CRF-induced Src Tyr416 phosphorylation (Src): did not alter CRF-induced phosphorylation of Src at Tyr^416
effect on EGF-stimulated ERK1/2 phosphorylation [1]: unable to inhibit the effect of EGF

Reference: PMC6921279 (Frontiers in Endocrinology, 2019)
